{"source": "paper PMC2908543", "about": "“Uropathogenic Escherichia coli Modulates Immune Responses and Its Curli Fimbriae Interact with the Antimicrobial Peptide LL-37” (PLoS Pathogens, 2010)", "key": {"monomeric CsgA": {"target": "T1, monomeric CsgA (Escherichia coli, UniProt P28307)", "T1 construct": "made in house; host or cells: E. coli LSR12 (C600::csg), co-expressed with CsgG", "T1 sequence (P28307 21-151)": "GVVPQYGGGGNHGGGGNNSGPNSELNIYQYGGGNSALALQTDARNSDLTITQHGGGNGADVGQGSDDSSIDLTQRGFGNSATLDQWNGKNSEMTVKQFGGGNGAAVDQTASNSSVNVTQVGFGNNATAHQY", "assay": "Surface plasmon resonance, monomeric CsgA", "details": "monomeric CsgA immobilized (2000 response units), 0.1 µM peptide, 20 µl/min for 3 min, HBS-EP, Biacore 3000; binding constants not determinable", "procedure": "(§1) Binding analysis of LL-37 to both monomeric and polymeric CsgA was performed with surface plasmon resonance (Biacore 3000 instrument; Biacore AB, Uppsala, Sweden). Both monomeric and polymeric CsgA was immobilized on a CM5 sensor chip (Biacore AB) surface by amine coupling. The chip surface was normalized in 70% glycerol and lanes on the chip were activated with injection of 35 µL 0.05 M N-hydroxysuccinimide (NHS)/0.2 M N-ethyl-N′-[3-dimethylamino) propyl]carbodiimide (EDC). Polymeric or monomeric CsgA (1 µM in 10 mM sodium acetate, pH 4.5) was then immobilized on the chip to 7000 response units and 2000 response units, respectively. After immobilization, the lanes were subjected to 60 µL ethanolamine (1 M, pH 8.5) to deactivate remaining activated carboxylic groups. One lane, activated and deactivated, was used as negative control (without addition of CsgA). Standard Biacore HBS-EP (Biacore AB) was utilized as running buffer, and 0.1 µM LL-37, sLL-37 or VIP were injected at 20 µl/min for 3 min. The surface was regenerated after each cycle with 100 mM HCl."}, "wild-type curli": {"tested_on": "wild-type curli", "assay": "Precipitation of LL-37 with wild-type curli, Western blot of supernatant", "type": "binding, Escherichia coli", "details": "0.1 µM LL-37 in PBS with 5 µM wild-type curli, 1 h at 37°C", "procedure": "The cellulose-deficient isogenic mutant of E. coli No. 12 was used to purify wild-type curli, as has been described. Colonies were harvested and suspended in 0.05 M Tris-buffer by using an omnimixer. Bacterial cell debris was discarded by centrifugation at 8000×g for 15 min and curli protein was precipitated by adding 0.1 M MgCl2 and 0.15 M NaCl. The aggregated curli were centrifuged at 16000×g for 15 min, and the pellet was dissolved in 10 mM TRIS, 1 mM EDTA, pH 7.5 with 2% 3-((3-cholamidopropyl)dimethylammonium)-1-propanesulfonate (CHAPS). After incubation for 45 min at 95°C, the solution was centrifuged at 20000×g for 10 min. The pellet containing curli was washed three times with water. Finally, curli were suspended in PBS and used for binding studies with LL-37.\nLL-37 (0.1 µM in PBS) was mixed with 5 µM wild-type curli, or 5 µM recombinant polymerized CsgA. As control, the same concentration of LL-37 without curli or CsgA was utilized. The samples were incubated for 1 h at 37°C with shaking and centrifuged for 30 min at 10000×g. An aliquot of the supernatants was analyzed for the presence of LL-37 with Western blot.\nSample preparation and SDS-PAGE was carried out as described above and Western blot was performed as previously described. […]"}, "[1]": {"tested_on": "E. coli strain No. 12 and isogenic mutants", "type": "cell-based, Escherichia coli", "details": "for IC50: initially grown in biofilm (LB plates without salt), 10^5 CFU/ml, 0.6 µM to 20 µM peptide in 2-fold dilutions, LB broth without salt, 20 h, Alamar blue 570 nm, two experiments in triplicates, read-out: IC50 (concentration at which bacterial growth was inhibited to 50%)", "procedure": "For further investigation, E. coli isolate No. 12 from a child with pyelonephritis was chosen. This was a typical isolate expressing both curli and cellulose as well as type 1 fimbriae and yielding an approximately median level of biofilm as measured on microtiter plates. One-step knockout of bcsA and csgBA was carried out according to the protocol of Datsenko and Wanner with modifications, [50]. The following mutants were constructed using oligos listed in Table 1; WE1 bcsA::Cm, deficient in cellulose production; WE11 csgBA::Cm, deficient in curli production; and WE16 csgBA bscA::Cm, deficient in both cellulose and curli production. Expression of curli and cellulose in strain No. 12 was confirmed by these knockouts. Production of type 1 fimbriae under the culture conditions used for experiments was confirmed by yeast agglutination (see below).\nThe susceptibility of wild-type and mutant E. coli strains to synthetic LL-37 and mCRAMP (Innovagen AB, Lund, Sweden) was determined using a broth microdilution method. Briefly, bacteria were grown overnight at 37°C on LB plates with or without salt, inhibiting or promoting the formation of biofilm, respectively. Then, bacteria were suspended in PBS and diluted in LB broth without salt in a concentration of 10^5 CFU/ml. The bacterial concentration was verified by viable count after serial dilutions in PBS. Bacteria (90 µl suspension) were grown in 96-well plates in the presence of 10 µl aqueous solution of synthetic LL-37 or mCRAMP in final concentrations ranging from 0.6 µM to 20 µM in 2-fold dilutions. After 20 h, bacterial viability was measured colorimetrically by reduction of Alamar blue (BioSource International, Camarillo, CA, USA) for 1 h at 37°C [57]. The IC50 was determined as the peptide concentration that gave 50% reduction of the absorbance at 570 nm relative to bacteria grown without peptide."}, "polymeric CsgA": {"target": "T2, polymeric CsgA (Escherichia coli, UniProt P28307)", "T2 construct": "made in house; host or cells: E. coli LSR12 (C600::csg), co-expressed with CsgG", "T2 sequence (P28307 21-151)": "as above", "assay": "Surface plasmon resonance, polymeric CsgA", "details": "polymeric CsgA immobilized (7000 response units), 0.1 µM peptide, 20 µl/min for 3 min, HBS-EP, Biacore 3000; binding constants not determinable", "procedure": "as §1"}}, "note": "“Also recorded” adds a separate entry of the source. Where two headings read alike, the source gives them in different places."}
{"smiles": "CC[C@H](C)[C@H](NC(=O)[C@H](CCCCN)NC(=O)[C@H](CCC(=O)O)NC(=O)[C@H](CCCCN)NC(=O)[C@H](CO)NC(=O)[C@H](CCCCN)NC(=O)[C@H](CCCNC(=N)N)NC(=O)[C@H](Cc1ccccc1)NC(=O)[C@H](Cc1ccccc1)NC(=O)[C@H](CC(=O)O)NC(=O)CNC(=O)[C@H](CC(C)C)NC(=O)[C@@H](N)CC(C)C)C(=O)NCC(=O)N[C@@H](CCCCN)C(=O)N[C@@H](CCC(=O)O)C(=O)N[C@@H](Cc1ccccc1)C(=O)N[C@@H](CCCCN)C(=O)N[C@@H](CCCNC(=N)N)C(=O)N[C@H](C(=O)N[C@H](C(=O)N[C@@H](CCC(N)=O)C(=O)N[C@@H](CCCNC(=N)N)C(=O)N[C@H](C(=O)N[C@@H](CCCCN)C(=O)N[C@@H](CC(=O)O)C(=O)N[C@@H](Cc1ccccc1)C(=O)N[C@@H](CC(C)C)C(=O)N[C@@H](CCCNC(=N)N)C(=O)N[C@@H](CC(N)=O)C(=O)N[C@@H](CC(C)C)C(=O)N[C@H](C(=O)N1CCC[C@H]1C(=O)N[C@@H](CCCNC(=N)N)C(=O)N[C@H](C(=O)N[C@@H](CCC(=O)O)C(=O)N[C@@H](CO)C(=O)O)[C@@H](C)O)C(C)C)[C@@H](C)CC)C(C)C)[C@@H](C)CC", "note": "[LL-37]", "values": [{"measurement": "binding / association and dissociation by SPR", "setting": "monomeric CsgA", "value": "higher association with CsgA than the control peptides; also recorded: stronger association and lower dissociation rates"}, {"measurement": "LL-37 in supernatants after precipitation", "setting": "wild-type curli", "value": "pronounced decrease of LL-37 in supernatants; also recorded: the levels of LL-37 decreased in the supernatants"}, {"measurement": "difference in resistance between the strains", "setting": "[1]; bacteria pre-grown planktonically, curli expression suppressed (data not shown)", "value": "no significant difference in the resistance"}, {"measurement": "IC50", "setting": "[1]; curliated strains", "value": 12, "unit": "µM"}, {"measurement": "IC50", "setting": "[1]; non-curliated strains", "value": "6 to 7", "unit": "µM"}, {"measurement": "binding / association and dissociation by SPR", "setting": "polymeric CsgA", "value": "higher association with CsgA than the control peptides; also recorded: stronger association and lower dissociation rates"}]}
